Test results taken from the supplement of paper PMC10307832.

Legend:
Test in all cases: relative viability (nuclei count vs DMSO), 5 days (fraction); higher = more cells survive
[1] = compound: CC1(COc2ccc3c(c2)ncn3-c2ccc3cccc(N4CCC(N)CC4)c3n2)COC1 [Crenolanib] + CC(=O)Nc1cccc(-n2c(=O)n(C3CC3)c(=O)c3c(Nc4ccc(I)cc4F)n(C)c(=O)c(C)c32)c1 [Trametinib] (partner 0.02 µM)
Procedure, shortened: (§1)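 For relative viability, nuclei counts in treated wells were divided by those in vehicle wells. Lung cancer cell lines had been pin-tool dosed in 1536-well plates the day after seeding and cultured for 5 days, then fixed and stained in one step (final 0.05% Triton X-100, 1% formaldehyde, 1 ug/ml Hoechst) and imaged at 4×. Doses were one drug alone or a fixed anchor-drug dose plus five library-drug doses (not always all listed) in √10 steps, and values are duplicate-plate medians.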

[2] = compound: O=C1NC(=O)[C@@H](c2cn3c4c(cccc24)CCC3)[C@@H]1c1c[nH]c2ccccc12 [Tivantinib] + O=C(c1cc(Cc2n[nH]c(=O)c3ccccc23)ccc1F)N1CCN(C(=O)C2CC2)CC1 [Olaparib] (partner 8 µM)
Procedure, shortened: as §1

[3] = compound: CC1(COc2ccc3c(c2)ncn3-c2ccc3cccc(N4CCC(N)CC4)c3n2)COC1 [Crenolanib] + CCNC(=O)c1noc(-c2cc(C(C)C)c(O)cc2O)c1-c1ccc(CN2CCOCC2)cc1 [Luminespib] (partner 0.01 µM)
Procedure, shortened: as §1

[4] = compound: O=C1NC(=O)[C@@H](c2cn3c4c(cccc24)CCC3)[C@@H]1c1c[nH]c2ccccc12 [Tivantinib] + CS(=O)(=O)N1CCN(Cc2cc3nc(-c4cccc5[nH]ncc45)nc(N4CCOCC4)c3s2)CC1 [Pictilisib] (partner 1 µM)
Procedure, shortened: as §1

Cell Line	relative viability ([1]; first compound 0.01 µM)	relative viability ([1]; first compound 0.03162 µM)	relative viability ([1]; first compound 0.1 µM)	relative viability ([1]; first compound 0.3162 µM)	relative viability ([1]; first compound 1 µM)	relative viability ([2]; first compound 0.01 µM)	relative viability ([2]; first compound 0.03162 µM)	relative viability ([2]; first compound 0.1 µM)	relative viability ([2]; first compound 0.3162 µM)	relative viability ([3]; first compound 0.01 µM)	relative viability ([3]; first compound 0.03162 µM)	relative viability ([3]; first compound 0.1 µM)	relative viability ([3]; first compound 0.3162 µM)	relative viability ([3]; first compound 1 µM)	relative viability ([4]; first compound 0.01 µM)	relative viability ([4]; first compound 0.03162 µM)	relative viability ([4]; first compound 0.1 µM)	relative viability ([4]; first compound 0.3162 µM)
NCI-H520	0.818	0.714	0.644	0.678	0.686	0.347	0.339	0.291	0.37	0.19	0.269	0.279	0.216	0.221	0.292	0.237	0.268	0.262
NCI-H596	0.823	0.842	0.753	0.729	0.75	0.734	0.661	0.655	0.6	1.11	0.97	0.932	1.12	1.11	0.427	0.39	0.379	0.334
NCI-H647	0.55	0.442	0.486	0.653	0.538	0.425	0.638	0.401	0.638	0.202	0.206	0.44	0.233	0.107	0.45	0.341	0.409	0.371
NCI-H650	1.01	1.01	0.976	1.05	0.992	0.41	0.432	0.356	0.34	0.839	0.791	0.777	0.872	0.757	0.835	–	0.817	0.8
NCI-H661	0.57	0.55	0.528	0.603	0.494	0.742	0.744	0.706	0.699	0.939	0.88	0.893	0.958	0.959	0.472	0.394	0.387	0.269
NCI-H727	0.437	0.387	0.359	0.382	0.447	0.746	0.785	0.593	–	0.353	0.376	0.264	0.428	0.376	0.36	0.368	0.447	–
NCI-H838	0.564	0.501	0.489	0.53	0.439	0.775	0.77	0.71	0.816	0.353	0.235	0.29	0.301	0.373	0.442	0.479	0.389	0.373
NCI-H1355	0.488	0.381	0.405	0.547	0.37	0.807	0.742	0.726	0.64	0.741	0.777	0.65	0.721	0.665	0.401	0.356	0.426	0.38
NCI-H1395	1.05	1.03	0.976	1	1.14	0.513	0.469	0.44	0.482	0.686	0.803	0.698	0.763	0.58	0.581	0.595	0.571	0.61
NCI-H1437	0.677	0.572	0.487	0.521	0.602	0.605	0.629	0.607	0.588	1.18	1.17	1.1	1.21	0.911	0.379	0.308	0.416	0.407
NCI-H1650	0.715	0.534	0.521	0.747	0.575	0.832	0.817	0.678	0.624	0.193	0.231	0.203	0.213	0.178	0.561	0.389	0.589	0.605
NCI-H1651	0.864	0.835	0.783	0.825	0.847	0.207	0.187	0.194	0.195	0.867	0.926	0.711	0.875	0.748	0.622	0.448	0.545	0.614
NCI-H1666	0.887	0.824	0.857	0.985	0.83	0.734	0.736	0.696	0.731	1.07	1.11	0.991	0.977	1.03	0.552	0.352	0.43	0.401
NCI-H1734	0.768	0.725	0.682	0.806	0.765	0.61	0.615	0.577	0.495	0.174	0.171	0.191	0.173	0.291	0.479	0.395	0.416	0.469
NCI-H1755	0.754	0.707	0.734	0.885	0.75	0.9	0.85	0.848	0.898	0.416	0.656	0.667	0.43	0.397	0.462	0.417	0.39	0.355
NCI-H1792	0.422	0.545	0.399	0.485	0.347	0.406	–	0.406	0.3	0.563	0.424	0.367	0.394	0.429	0.343	0.235	0.288	0.186
NCI-H1793	0.349	0.333	0.363	0.472	0.458	0.982	0.761	0.819	0.45	0.197	0.249	0.165	0.16	0.186	0.353	0.42	0.437	–
NCI-H1915	0.29	0.324	0.289	0.304	0.275	0.262	0.227	0.244	0.239	0.787	0.875	0.757	0.857	0.803	0.902	0.92	0.93	1.04

Cell Line	relative viability ([1]; first compound 0.01 µM)	relative viability ([1]; first compound 0.03162 µM)	relative viability ([1]; first compound 0.1 µM)	relative viability ([1]; first compound 0.3162 µM)	relative viability ([1]; first compound 1 µM)	relative viability ([2]; first compound 0.01 µM)	relative viability ([2]; first compound 0.03162 µM)	relative viability ([2]; first compound 0.1 µM)	relative viability ([2]; first compound 0.3162 µM)	relative viability ([3]; first compound 0.01 µM)	relative viability ([3]; first compound 0.03162 µM)	relative viability ([3]; first compound 0.1 µM)	relative viability ([3]; first compound 0.3162 µM)	relative viability ([3]; first compound 1 µM)	relative viability ([4]; first compound 0.01 µM)	relative viability ([4]; first compound 0.03162 µM)	relative viability ([4]; first compound 0.1 µM)	relative viability ([4]; first compound 0.3162 µM)
NCI-H1944	0.426	0.414	0.375	0.454	0.406	0.368	0.424	0.39	0.374	0.729	0.801	0.759	0.871	0.655	0.308	0.294	0.332	0.369
NCI-H1975	0.344	0.316	0.313	0.304	0.359	0.799	0.77	0.72	0.734	0.337	0.22	0.182	0.269	0.185	0.283	0.304	0.281	0.259
NCI-H1993	0.509	0.512	0.56	0.505	0.501	1.22	1.04	1.05	0.589	0.998	0.839	0.684	0.823	0.783	0.817	0.857	0.843	0.902
NCI-H2009	0.325	0.296	0.308	0.223	0.235	0.714	0.674	0.746	0.643	1.04	1.08	1.06	1.11	0.982	0.875	0.464	0.767	0.763
NCI-H2023	0.549	0.556	0.53	0.594	0.494	0.52	0.452	0.479	0.402	0.839	0.704	0.639	1	0.453	0.246	0.225	0.218	0.202
NCI-H2085	–	0.571	0.549	0.51	0.554	0.825	0.817	0.718	0.778	0.478	0.43	0.407	0.481	0.421	0.477	0.471	0.392	0.515
NCI-H2087	0.234	0.227	0.207	0.207	0.193	0.56	0.628	0.602	0.658	0.184	0.195	0.167	0.191	0.184	0.958	0.757	0.909	0.896
NCI-H2126	0.596	0.578	0.564	0.608	0.62	0.94	0.933	0.881	0.813	0.922	0.958	0.869	0.857	0.588	0.51	0.446	0.496	0.478
NCI-H2170	0.945	0.93	0.928	0.9	0.927	0.558	0.658	0.507	–	0.741	0.568	0.761	1.02	0.672	0.298	0.222	0.33	–
NCI-H2228	0.442	0.544	0.342	0.551	0.5	0.43	0.815	0.678	0.587	0.137	0.15	0.105	0.193	0.228	0.405	0.345	0.458	0.413
NCI-H2347	0.283	0.286	0.282	0.255	0.293	0.556	0.593	0.583	0.552	0.44	–	–	0.556	0.353	0.986	0.724	0.514	0.525
NCI-H2405	0.698	–	0.483	0.621	0.57	1.02	0.895	0.868	0.867	0.786	0.83	–	0.641	0.594	0.509	0.43	0.381	0.4
NCI-H3122	0.233	0.21	0.224	0.23	0.318	0.643	0.608	0.584	0.665	0.0862	0.0824	0.0708	0.0964	0.0864	0.585	0.599	0.545	0.441
PC-3 [JPC-3]	0.758	–	0.632	0.623	0.585	1.09	1.12	1.11	0.662	0.806	0.761	0.676	0.742	0.71	0.687	0.705	0.765	0.637
PC-14	0.91	0.619	0.679	0.716	0.647	0.238	0.305	0.228	0.26	0.126	–	0.154	0.118	0.146	0.584	0.718	0.723	0.292
RERF-LC-KJ	0.882	0.855	0.896	0.901	0.926	0.894	0.892	0.917	0.799	1.31	1.28	1.04	1.31	1.18	0.543	0.618	0.51	0.461
SK-LU-1	0.465	0.517	0.351	0.491	0.512	0.595	0.464	0.433	0.512	0.205	0.246	0.217	0.208	0.211	0.669	0.524	0.614	0.548
SK-MES-1	0.583	0.549	0.55	0.548	0.487	0.751	0.659	–	0.874	0.827	0.728	0.699	0.83	0.57	0.413	0.368	0.4	0.213
